PubChem BioAssay (NCI)
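Cultured in 96-well plates, cells were exposed to test compound for 48 hours across five concentrations. Here, GI50 denotes the concentration required for 50% inhibition of growth. At the TGI there is no net growth.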

How the values were obtained:
Experiment in all cases: inhibition of tumour cell growth, NCI panel, 48 h
[1] = test system: HT29 colon
[2] = test system: EKVX NSCLC
[3] = test system: HCT-15 colon
[4] = test system: U251 CNS
[5] = test system: NCI-H460 lung
[6] = test system: HOP-62 NSCLC
[7] = test system: SF-539 CNS
[8] = test system: CAKI-1 renal
[9] = test system: MDA-MB-435
[10] = test system: T-47D breast

Structure (SMILES)	TGI [1] [µM]	TGI [2] [µM]	TGI [3] [µM]	TGI [4] [µM]	TGI [5] [µM]	TGI [6] [µM]	TGI [7] [µM]	TGI [8] [µM]	GI50 [7] [µM]	GI50 [2] [µM]	GI50 [8] [µM]	GI50 [5] [µM]	GI50 [9] [µM]	TGI [9] [µM]	GI50 [6] [µM]	GI50 [1] [µM]	GI50 [10] [µM]	TGI [10] [µM]	GI50 [3] [µM]	GI50 [4] [µM]
COC(=O)CCC(NC(=S)N/N=C(\C)c1ccc[nH]1)C(=O)OC (stereo unspecified)	> 100	> 100	> 100	> 100	> 100	> 100	> 100													
CCCn1c(SCCSc2c3ccccc3c(-c3nc(F)nc(F)n3)n2CCC)c2ccccc2c1-c1nc(F)nc(F)n1	> 100	> 100	> 100	> 100	> 100	> 100	> 100	> 100												
COc1cc(CNc2nc3c(N)cc(C(F)(F)F)cc3nc2-c2ccccc2)cc(OC)c1OC	> 100	25.6	> 100	> 100	> 100	> 100	> 100		> 100											
C=CC(=O)N1C/C(=C\c2ccc(Cl)c(Cl)c2)C(=O)/C(=C/c2ccc(Cl)c(Cl)c2)C1	0.323		0.201	0.0724	0.298	0.607	0.367	1.17												
COc1cc2c(cc1OC)C(C(=O)O)C(c1ccccc1)N(C)C2=O (stereo unspecified)	> 100	> 100		> 100	> 100	> 100	> 100	> 100												
CC(C)N(C(=O)c1cccc(C(=O)N(C(C)C)C(C)C)c1)C(C)C	> 100	> 100	> 100	> 100	> 100	> 100	> 100	> 100												
O=C(Oc1cccc(Cl)c1)c1ccccc1Nc1ccnc(C(F)(F)F)c1		46.4			43.7	44.7	7.24	4.1	2.79	22.2	2.13	11.2	3.04	10.7	24.9					
C/C(=C\c1ccn(-c2ccccc2N)n1)[C@@H]1C[C@@H]2O[C@]2(C)CCC[C@H](C)[C@H](O)[C@@H](C)C(=O)C(C)(C)[C@@H](O)CC(=O)O1	> 50	> 50	> 50	> 33.6	> 50	> 50	0.236	> 50	0.0334	0.684	0.242	0.0201			0.112	0.0206	0.0692	> 50	0.0393	0.0348
C/C(CC(=O)Nc1cccc(Cl)c1C)=N\NC(N)=S	> 100	> 100		> 100	> 100	> 100	> 100													
O=C1C2C(C(=O)N1c1ccccc1)C1c3ccccc3C2C2C(=O)N(c3ccccc3)C(=O)C21 (stereo unspecified)	> 100	> 100	> 100	11.5	> 100		31.4	> 100												
ClC(Cl)=C(Cl)C1(Cl)CC1COCc1ccccc1 (stereo unspecified)	86.3	> 100	> 100		> 100	79.3	> 100	> 100												
C[N+]1=c2c3cccc4cccc(c(=O)n2CC1)c43	64.4	87.5	60.7	85.8	28.2	53.1	32.2	> 100												
O=c1cc(-c2ccccn2)[nH]c2cccc(F)c12	> 100	> 100			> 100	> 100	> 100													
CCC[CH2][Sn]([CH2]CCC)([O]C(=O)c1cc(OC)c(OC)cc1OC)[O][Sn]([CH2]CCC)([CH2]CCC)[O]C(=O)c1cc(OC)c(OC)cc1OC	2.82	3.09	1.71	2.41	2.85	3.67	1.01	0.686	0.314	1.7	0.161	1.3			2.11	1.22			0.497	1.17
C/C(CC(=O)NCCc1ccccc1)=N\NS(=O)(=O)c1ccc(C)cc1	> 100	> 100		> 100	> 100	> 100	> 100													
CC(C)/C=C1\CCC(CN2CCOCC2)C1=O (stereo unspecified)	15.4	36.8	19.2	> 56.4	> 60.7	> 100	29.3	8.93												

Structure (SMILES)	TGI [1] [µM]	TGI [2] [µM]	TGI [3] [µM]	TGI [4] [µM]	TGI [5] [µM]	TGI [6] [µM]	TGI [7] [µM]	TGI [8] [µM]	GI50 [7] [µM]	GI50 [2] [µM]	GI50 [8] [µM]	GI50 [5] [µM]	GI50 [9] [µM]	TGI [9] [µM]	GI50 [6] [µM]	GI50 [1] [µM]	GI50 [10] [µM]	TGI [10] [µM]	GI50 [3] [µM]	GI50 [4] [µM]
Cc1cn2c(/C=C3/C(=O)Nc4c3ccc3ccccc43)c(C(F)(F)F)nc2s1	14.2	> 100	> 100	> 100	25.3	93.1	5.07	> 100	1.14	4.23	1.76	0.501			0.586	0.396	2.88	> 100	0.618	2.12
CCOC(=O)NC(=O)c1cn(CCN2CCN(C(=O)CNC(=O)CNC(=O)Cn3cc(C(=O)NC(=O)OCC)c(=O)[nH]c3=O)CC2)c(=O)[nH]c1=O	> 100		> 100	> 100	> 100	> 100	> 100	> 100												
COC1C(OC(=O)c2ccc(C)[nH]2)C(O)C(Oc2ccc3c(O)c(NC(=O)c4c[nH]c(C(=O)Nc5c(O)c6ccc(OC7OC(C)(C)C(OC)C(OC(=O)c8ccc(C)[nH]8)C7O)c(C)c6oc5=O)c4C)c(=O)oc3c2C)OC1(C)C (stereo unspecified)	16.1	19.2	7.06	2.89	6.62			6.08												
N#C/C(=C1\SCC(=O)N1c1ccccc1)c1nc2ccccc2[nH]1	> 100	> 100	> 100	> 100	> 100	> 100	> 100	> 100												
O=C(/C=C(\O)C(=O)O)/C=C(\O)c1ccccc1	> 100	> 100	> 100	> 100	> 100	> 76.2	> 1	> 100	< 1	> 1		> 1			> 1	> 1			> 1	> 1
Cc1ccc(S(=O)(=O)N/N=C(\c2nc3ccc(Cl)cc3[nH]c2=O)C(O)c2ccco2)cc1 (stereo unspecified)	> 100	> 100	> 100		> 100		> 100	> 100												
COc1ccccc1N=Nc1c(-c2ccccc2)nn(C(=O)CC(=O)Nc2cccc(C)c2)c1-c1ccccc1	33.3	> 100	> 100	> 100	> 100	> 100	> 100	> 100												
C#CC1(O)CCC2C3CCc4cc(Oc5nc(F)nc(-c6c7ccccc7c7n6CCS7)n5)ccc4C3CC[C@@]21C (stereo partly specified)	73.7		54.3	40.7	> 100	36.1	33	73												
O=c1cccccc1[O-].O=c1cccccc1[O-].O=c1cccccc1[O-].[Eu+3]	> 100	> 100	> 100	> 100	> 100	90.2	> 100	> 100	30.2						24.9					26.9
[N-]=[N+]=NC(c1cn(C2CC(O)C(CO)O2)c(=O)[nH]c1=O)C(Cl)Br (stereo unspecified)	> 100	> 100	> 100	> 100	> 100		> 100	> 100												
Cc1cc(N(CCC#N)S(=O)(=O)c2ccccc2)ccc1/C=C1\N=C(c2ccc(Cl)cc2)OC1=O	> 100	> 100	> 100	> 100	> 100		> 100	> 100												
COc1ccc(-c2cc(=O)n(-c3nc4ccccc4[nH]3)[nH]2)cc1OC	> 100		> 100	> 100	68.3	> 100	48.9	> 100	6.36		4.79	3.91	3.87	> 100	9.36	30.5			3.7	4.2
Cc1c(C(=O)C/C(=N/NC(=O)c2ccccc2)C(=O)Nc2ccc(Cl)cc2)[n+](=O)c2ccccc2n1[O-]	> 100		> 100	> 100	> 100	> 100	> 100	> 100												
CC(C)C1CO[C@]2(C)CCC(=O)N12 (stereo partly specified)	> 100	> 100	> 100	> 100	> 100	> 100	> 100	> 100												
CCO/C=C1\N=C(c2ccc(Cl)c(Cl)c2)OC1=O	> 100	> 100	> 100		> 100	> 100	> 100	> 100												
